Assay results as given in PubChem BioAssay (NCI).
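Step 1: Grow cells in 96-well plates. Step 2: Expose to compound for 48 hours at 5 concentrations. Step 3: Interpolate endpoints linearly; if unreached, use highest concentration. TGI denotes the concentration required for complete inhibition of growth.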

Experiments:
Assay in all cases: NCI tumour cell line growth inhibition, 48 h
[1] = test system: HCT-15 colon
[2] = test system: OVCAR-4 ovarian
[3] = test system: NCI-H522 lung
[4] = test system: HS 578T breast
[5] = test system: RXF 393 renal
[6] = test system: SNB-19 CNS
[7] = test system: NCI/ADR-RES ovarian
[8] = test system: OVCAR-8 ovarian
[9] = test system: LOX IMVI melanoma
[10] = test system: A549 NSCLC
[11] = test system: OVCAR-3 ovarian
[12] = test system: SK-MEL-28 melanoma
[13] = test system: SN12C renal
[14] = test system: ACHN renal
[15] = test system: NCI-H460 lung
[16] = test system: SW-620 colon
[17] = test system: COLO 205 colon
[18] = test system: RPMI-8226 leukemia
[19] = test system: DU-145 prostate
[20] = test system: BT-549 breast

| Compound | TGI [1] [µM] | TGI [2] [µM] | TGI [3] [µM] | TGI [4] [µM] | TGI [5] [µM] | TGI [6] [µM] | TGI [7] [µM] | TGI [8] [µM] | TGI [9] [µM] | TGI [10] [µM] | TGI [11] [µM] | TGI [12] [µM] | TGI [13] [µM] | TGI [14] [µM] | TGI [15] [µM] | TGI [16] [µM] | TGI [17] [µM] | TGI [18] [µM] | TGI [19] [µM] | TGI [20] [µM] |
| --- | --- | --- | --- | --- | --- | --- | --- | --- | --- | --- | --- | --- | --- | --- | --- | --- | --- | --- | --- | --- |
| [O-][N+]1=NC(c2ccccc2)=C1c1ccccc1 | > 50 | > 50 | > 50 | > 50 | > 50 | > 50 | > 50 | > 50 | > 50 | > 50 | > 50 | > 50 | > 50 | > 50 | > 50 | > 50 | > 50 | > 50 | > 50 | – |
| CCOC(=O)c1nc2ccccc2nc1Oc1cc(OC)c(OC)c(OC)c1 | > 100 | > 100 | > 100 | > 100 | – | > 100 | > 100 | > 100 | > 100 | > 100 | > 100 | > 100 | > 100 | > 100 | > 100 | > 100 | > 100 | > 100 | > 100 | > 100 |
| CC1(C)C2CC3C4CC5(Nc6ccccc6C5N41)[C@]3(C)CC2=O (some centres not stated) | > 50 | > 50 | > 50 | > 50 | > 50 | – | > 50 | > 50 | > 50 | > 50 | > 50 | > 50 | > 50 | > 50 | > 50 | > 50 | > 50 | > 50 | > 50 | > 50 |
| CN(C)c1ccc(-c2ccc(N(C)C)c3n[se]nc23)c2n[se]nc12 | > 100 | > 100 | > 100 | > 100 | > 100 | – | > 100 | > 100 | > 100 | > 100 | > 100 | > 100 | > 100 | > 100 | > 100 | > 100 | – | > 100 | > 100 | > 100 |
| CCN(CC)c1ccc2cc(-c3nnc(-c4ccccc4O)o3)c(=O)oc2c1 | 29.4 | 27.5 | 25.5 | 57.6 | – | 26.9 | 44.1 | 11.9 | 20.1 | 29.1 | 21.1 | 32.3 | – | 24.2 | 27.9 | 26.9 | 33.6 | > 100 | 23.6 | 24.4 |
| O=c1c2cc(Cl)ccc2[nH]c2cc(O)cc(O)c12 | > 10 | > 10 | > 10 | > 10 | > 10 | > 10 | > 10 | > 10 | – | > 10 | > 10 | > 10 | > 10 | > 10 | > 10 | > 10 | > 10 | > 10 | > 10 | > 10 |
| COc1ccc(/C=C2/NC(=S)N=C2Cl)cc1 | > 100 | > 100 | > 100 | > 100 | > 100 | > 100 | > 100 | > 100 | > 100 | > 100 | > 100 | > 100 | > 100 | > 100 | – | > 100 | > 100 | > 100 | > 100 | – |
| COc1ccccc1N=N/C(=N\NC(=O)c1ccc(C)cc1)c1ccc(N(CCC#N)CCC#N)cc1C | > 100 | > 100 | – | > 100 | > 100 | > 100 | > 100 | > 100 | > 100 | > 100 | 61.9 | > 100 | > 100 | > 100 | > 100 | > 100 | 37.3 | > 100 | > 100 | > 100 |
| O=c1c(NO)c([N+](=O)[O-])cnn1-c1ccccc1 | 11.6 | 6.95 | 4.86 | 11 | 12.3 | 26.1 | – | 7.48 | 3.66 | 36.2 | 5.76 | 8.87 | 7.59 | 15.9 | 13.1 | 3.73 | 9.85 | 34 | 27.6 | 2.93 |
| C=CC(Br)(CBr)CCC(Br)C(C)(C)Cl (configuration not stated) | 6.53 | 10.4 | 2.79 | 14.7 | 8.86 | 4.51 | 18.6 | 10.2 | – | 28.6 | 5.25 | 6 | 16.5 | 6.07 | 6.06 | 5.67 | 4.36 | 2.31 | 9.92 | 21.8 |
| N#Cc1nc(-c2ccccn2)oc1N | > 100 | > 100 | > 100 | > 100 | > 100 | > 100 | – | – | > 100 | – | > 100 | > 100 | > 100 | > 100 | > 100 | > 100 | > 100 | > 100 | > 100 | > 100 |
| O=C1NC(N2CCCCC2)=N/C1=C\c1ccccc1O | > 100 | 91.4 | > 100 | > 100 | > 100 | > 100 | > 100 | > 100 | > 100 | > 100 | > 100 | > 100 | > 100 | > 100 | – | > 100 | > 100 | > 100 | > 100 | – |
| C=C1C(=O)OC2CC(=C)C3CC=C(C)C3CC12 (configuration not stated) | 36.7 | > 100 | 36.2 | > 100 | – | 54.5 | > 100 | > 100 | 23.5 | > 100 | 91.9 | 77.3 | 31.7 | 47.8 | > 100 | 32.4 | 41.7 | > 100 | – | 59.7 |
| O=C(CN1CCOCC1)c1ccc2c(c1)oc(=O)n2CCN1CCCC1 | > 100 | – | – | > 100 | > 100 | > 100 | > 100 | > 100 | > 100 | – | > 100 | > 100 | > 100 | > 100 | > 100 | > 100 | > 100 | > 100 | > 100 | > 100 |
| O=[N+]([O-])C(=C1Nc2ccccc2N1)/C(Cl)=C(/Cl)N1CCOCC1 | > 100 | 61 | – | > 100 | – | > 100 | > 100 | > 100 | – | > 100 | 96.6 | > 100 | > 100 | > 100 | > 100 | > 100 | > 100 | > 100 | – | > 100 |
| O=C(O)CNn1c(SCC(=O)O)nnc(/C=C/c2c(O)ccc3ccccc23)c1=O | > 100 | > 100 | > 100 | 94.4 | – | > 100 | 67.9 | 28.6 | 31.8 | > 100 | > 100 | > 100 | > 100 | > 100 | > 100 | > 100 | > 100 | > 100 | > 100 | 63.8 |
| COC(=O)[C@@H](Cc1ccccc1)N1O[C@]12CCCC[C@@H]2NC(=O)OC(C)(C)C (some centres not stated) | 33.5 | > 100 | 30.4 | 55.8 | 56.1 | > 100 | 52.4 | – | – | > 100 | 57.1 | 60.7 | > 100 | 32.5 | 90.6 | 29.3 | 75.5 | > 100 | 79 | 34.8 |
| N#Cc1c(O)cc(=O)n2c1[nH]c1ccccc12 | > 100 | > 100 | > 100 | > 100 | > 100 | > 100 | > 100 | > 100 | – | > 100 | > 100 | – | > 100 | > 100 | > 100 | > 100 | > 100 | > 100 | > 100 | > 100 |
| Fc1cccc(Cl)c1C1SCc2nc3cc4ccccc4cc3n21 (configuration not stated) | > 100 | > 100 | – | > 100 | > 100 | > 100 | > 100 | > 100 | > 100 | > 100 | > 100 | > 100 | > 100 | > 100 | – | > 100 | > 100 | > 100 | > 100 | > 100 |
| O=[N+]([O-])/C(C(Cl)=C(Cl)Cl)=C(\Nc1ccccc1)n1nnc2ccccc21 | > 100 | 35 | – | 38.7 | – | > 100 | > 100 | > 100 | 31.2 | > 100 | > 100 | > 100 | > 100 | > 100 | > 100 | > 100 | > 100 | 93 | – | 70.2 |
| COc1ccc(N=Nc2c(C)c(C#N)c(=S)n(C3OC(CO)C(O)C(O)C3O)c2C)cc1 (configuration not stated) | > 100 | > 100 | – | > 100 | > 100 | > 100 | > 100 | – | > 100 | > 100 | > 100 | > 100 | – | > 100 | > 100 | > 100 | > 100 | > 100 | > 100 | > 100 |
| O=C1NC(=O)/C(=C/c2ccc(S(=O)(=O)N/N=C\C(O)C(O)C(O)C(O)CO)cc2)N1 (configuration not stated) | > 100 | > 100 | – | > 100 | > 100 | > 100 | > 100 | > 100 | > 100 | > 100 | > 100 | > 100 | > 100 | > 100 | > 100 | > 100 | > 100 | > 100 | > 100 | > 100 |
| NC(Cc1ccc(S(=O)(=O)O)cc1)C(=O)NC(Cc1ccc(S(=O)(=O)O)cc1)C(=O)NC(Cc1ccc(S(=O)(=O)O)cc1)C(=O)O (configuration not stated) | > 100 | > 100 | > 100 | > 100 | > 100 | – | > 100 | > 100 | > 100 | > 100 | > 100 | > 100 | > 100 | > 100 | > 100 | > 100 | > 100 | > 100 | > 100 | > 100 |
| CC(C)C(C/C=C1/CC(CO)(COC(=O)c2ccccc2)OC1=O)C(C)C (configuration not stated) | 36.9 | 30 | 35 | 24.3 | 31.2 | 31.1 | 38.8 | 48.5 | 69.6 | 26.5 | 32.2 | 27.8 | 29 | 28.2 | 45.7 | 31.9 | 17.4 | – | – | 33.2 |
| Cc1ccc(/C=C2\CCCC(CN(C)C)C2=O)cc1 (configuration not stated) | 4.23 | 3.8 | 1.98 | > 100 | 3.34 | 30.1 | 17.1 | – | 3.38 | 30.9 | 3.22 | 3.9 | 3.91 | 7.19 | 13.1 | 2.88 | 3.13 | – | 21.9 | 6.4 |
| CC(=O)c1cccc(NC(=O)C(=O)C(c2cnc3ccc([N+](=O)[O-])cc3n2)[N+](=O)[O-])c1 (configuration not stated) | > 100 | > 100 | – | > 100 | > 100 | > 100 | > 100 | > 100 | > 100 | – | > 100 | > 100 | > 100 | > 100 | > 100 | > 100 | > 100 | > 100 | > 100 | > 100 |
